Assays:
Mdm2/p53 binding = molecular target: T1, Mdm2/p53 binding (Homo sapiens, UniProt Q00987, L33E); experiment: Mdm2/p53 binding assay (HTRF, His-p53 and GST-Mdm2); details: His-p53 (aa 1-132) and GST-Mdm2 (aa 25-108, L33E), 6.25 nM each, 25° C. for 1 hour
T1 construct: Mdm2 amino acids at positions 25 to 108
Procedure: Next, a test compound was diluted with DMSO to produce protein buffer solution containing 10% dilution, and this buffer solution was added in an amount of 4 μL/well to the plate.
These dilutions were added in an amount of 8 μL/well (total reaction solution volume: 20 μl/well). Then, the plate was left at 25° C. for 1 hour.
The R value calculated from the well supplemented with His-p53, GST-Mdm2, the test compound, and each antibody was defined as R (sample). The R value calculated from the well supplemented with His-p53, GST-Mdm2, and each antibody but without the test compound was defined as R (control). The R value calculated from the well supplemented with GST-Mdm2, the test compound, and each antibody but without His-p53 was defined as R (background). T/C was calculated from the formula shown below. An IC50 value for Mdm2/p53 binding was calculated by sigmoid fitting. T/C=(R(sample)−R(background))/(R(control)−R(background))

[1] = Metabolic stability test (microsomal metabolism); type: in vitro ADME; details: human liver microsomes, 37° C., 30 minutes after addition of NADP+; also: tested at 1.1 µM
Procedure: 100 μL of 100 mM phosphate buffer solution (pH 7.4) containing 3 μM test compound was added to 100 μL of reaction solution containing 100 mM phosphate buffer solution (pH 7.4), 30 mM glucose 6-phosphate, 10 mM MgCl2.6H2O, 3 units/mL glucose 6-phosphate 1-dehydrogenase, and 0.3 to 1.5 mgP/mL human liver microsomes and the mixture was incubated at 37° C. for 20 minutes. Then, 70 μL of 100 mM phosphate buffer solution (pH 7.4) containing 3 mM NADP+ was added and the mixture was further incubated at 37° C. for 30 minutes to conduct a microsomal metabolism test. The compound was quantified by the internal standard method using a quadrupole mass spectrometer connected to a high performance liquid chromatography apparatus. The metabolic stability (residual percentage of compound: MS %) was determined according to the following formula: MS(human)(%)=(peak area ratio of test compound after addition of NADP+ and incubation for 30 minutes)/(peak area ratio of test compound before addition of NADP+)×100.
(peak area ratio: peak area of test compound divided by that of internal standard substance)

[2] = system: human lung cancer-derived cell line NCI-H460 having wild-type p53; experiment: Cell growth inhibition assay (MTT); type: cell-based; details: 72 h, NCI-H460 cells, culturing 3 days, read-out: anti-cellular effect GI50 (50% growth inhibition concentration)
Procedure: A cell growth inhibition assay was conducted using human lung cancer-derived cell line NCI-H460 having wild-type p53.
NCI-H460 cells were suspended in a medium (RPMI1640 medium containing 10% fetal bovine serum) and the suspension was inoculated in an amount of 500 cells/150 μL/well to a 96-well multiwell plate. A test compound was dissolved in DMSO and this solution was diluted with medium to prepare a sample solution (DMSO concentration: 1% or lower). On the next day of inoculation, medium nonsupplemented with the test compound or the sample solution was added in an amount of 50 μL/well. The MTT assay was conducted immediately after the medium was added in an amount of 50 μL on the next day of cell inoculation, and after the sample solution or the medium was added to cells followed by culturing at 37° C. for 3 days in a 5% CO2 atmosphere. The MTT assay was conducted as shown below.
A 5 mg/mL MTT (3-(4,5-dimethylthiazol-2-yl)-2,5-diphenyltetrazolium bromide, Sigma-Aldrich Co., M-2128) solution was prepared using a phosphate buffer solution (Dulbecco's Phosphate-buffered Saline). This MTT solution was added in an amount of 20 μL/well. Then, the plate was cultured at 37° C. for 4 hours in a 5% CO2 atmosphere. The plate was centrifuged at 1200 rpm for 5 minutes and then the culture supernatant was removed by aspiration using a dispenser. DMSO was added in an amount of 150 μL/well to dissolve generated formazan. The plate was stirred using a plate mixer for uniform color development from each well. The absorbance of each well was measured under conditions of OD 540 nm and reference 660 nm using a plate reader (SpectraMax PLUS384, Molecular Devices, CA, USA).
The OD value measured on the day of adding the sample solution was defined as S. The OD value measured three days after addition of the sample solution was defined as T. The OD value measured three days after addition of the DMSO dilution was defined as C. T/C (%) was determined at each concentration according to the calculation formula shown below to prepare a dose response curve, from which 50% growth inhibition concentration (GI50 value) was calculated. T/C(%)=(T−S)/(C−S)×100

T1 sequence (Q00987 25-108 L33E): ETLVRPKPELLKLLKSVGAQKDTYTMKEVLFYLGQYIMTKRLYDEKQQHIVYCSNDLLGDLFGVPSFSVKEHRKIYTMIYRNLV

| Compound | IC50 (Mdm2/p53 binding) [nM] | MS (human) % (metabolic stability, residual percentage of compound) [1] [%] | GI50 [2] [nM] |
| --- | --- | --- | --- |
| CC(C)C1=C(C(=O)N2C[C@H](F)C[C@H]2C(=O)N2CC3(CC3)NC[C@H]2C)SC2=N[C@@](C)(c3ccc(Cl)nc3)[C@@H](c3ccc(Cl)cc3)N21 [Example 28] | 3.1 | 51 | 400 to 2500 |
| CC(C)C1=C(C(=O)N2C[C@H](F)C[C@H]2C(=O)N2CCNC3(CC3)C2)SC2=N[C@@](C)(c3ccc(Cl)nc3)[C@@H](c3ccc(Cl)c(F)c3)N21 [Example 1, 7-[(4R)-1-{[(5R,6S)-5-(4-chloro-3-fluorophenyl)-6-(6-chloropyridin-3-yl)-3-isopropyl-6-methyl-5,6-dihydroimidazo[2,1-b][1,3]thiazol-2-yl]carbonyl}-4-fluoro-L-prolyl]-4,7-diazaspiro[2.5]octane] | 2.8 | 77 | < 400 |
| CC(C)C1=C(C(=O)N2C[C@H](F)C[C@H]2C(=O)N2CC3(CC3)NC[C@H]2C(=O)O)SC2=N[C@@](C)(c3ccc(Cl)nc3)[C@@H](c3ccc(Cl)c(F)c3)N21 [Example 14] | 16 | 100 | 400 to 2500 |
| CC(C)C1=C(C(=O)N2CC(F)(F)C[C@H]2C(=O)N2CC3(CC3)NC[C@H]2C)SC2=N[C@@](C)(c3ccc(Cl)nc3)[C@@H](c3ccc(Cl)c(F)c3)N21 [Example 10, (6R)-7-(1-{[(5R,6S)-5-(4-chloro-3-fluorophenyl)-6-(6-chloropyridin-3-yl)-3-isopropyl-6-methyl-5,6-dihydroimidazo[2,1-b][1,3]thiazol-2-yl]carbonyl}-4,4-difluoro-L-prolyl)-6-methyl-4,7-diazaspiro[2.5]octane] | 14 | 48 | < 400 |
| CC(C)C1=C(C(=O)N2C[C@H](F)C[C@H]2C(=O)N2CC3(CC3)NC[C@@H]2CO)SC2=N[C@@](C)(c3ccc(Cl)nc3)[C@@H](c3ccc(Cl)c(F)c3)N21 [Example 11, {(6R)-7-[(4R)-1-{[(5R,6S)-5-(4-chloro-3-fluorophenyl)-6-(6-chloropyridin-3-yl)-3-isopropyl-6-methyl-5,6-dihydroimidazo[2,1-b][1,3]thiazol-2-yl]carbonyl}-4-fluoro-L-prolyl]-4,7-diazaspiro[2.5]oct-6-yl}methanol] | 3.2 | 100 | 400 to 2500 |
| CC(C)C[C@@H]1CNC2(CC2)CN1C(=O)[C@@H]1C[C@@H](F)CN1C(=O)C1=C(C(C)C)N2C(=N[C@@](C)(c3ccc(Cl)nc3)[C@H]2c2ccc(Cl)c(F)c2)S1 [Example 7, (6R)-7-[(4R)-1-{[(5R,6S)-5-(4-chloro-3-fluorophenyl)-6-(6-chloropyridin-3-yl)-3-isopropyl-6-methyl-5,6-dihydroimidazo[2,1-b][1,3]thiazol-2-yl]carbonyl}-4-fluoro-L-prolyl]-6-isobutyl-4,7-diazaspiro[2.5]octane] | 3.6 | 100 | 400 to 2500 |
| CC(C)C1=C(C(=O)N2C[C@H](F)C[C@H]2C(=O)N2CCNC3(CC3)C2)SC2=N[C@@](C)(c3ccc(Cl)nc3)[C@@H](c3ccc(Cl)cc3)N21 [Example 26] | 2.7 | 57 | 400 to 2500 |
| CC(C)C1=C(C(=O)N2CC(F)(F)C[C@H]2C(=O)N2CC3(CC3)NC[C@@H]2C)SC2=N[C@@](C)(c3ccc(Cl)nc3)[C@@H](c3ccc(Cl)c(F)c3)N21 [Example 9, (6S)-7-(1-{[(5R,6S)-5-(4-chloro-3-fluorophenyl)-6-(6-chloropyridin-3-yl)-3-isopropyl-6-methyl-5,6-dihydroimidazo[2,1-b][1,3]thiazol-2-yl]carbonyl}-4,4-difluoro-L-prolyl)-6-methyl-4,7-diazaspiro[2.5]octane] | 4.1 | 80 | < 400 |
| CC(C)C1=C(C(=O)N2C[C@H](F)C[C@H]2C(=O)N2CC3(CC3)NC[C@@H]2C(=O)O)SC2=N[C@@](C)(c3ccc(Cl)nc3)[C@@H](c3ccc(Cl)c(F)c3)N21.Cl.Cl [Example 13, (6R)-7-[(4R)-1-{[(5R,6S)-5-(4-chloro-3-fluorophenyl)-6-(6-chloropyridin-3-yl)-3-isopropyl-6-methyl-5,6-dihydroimidazo[2,1-b][1,3]thiazol-2-yl]carbonyl}-4-fluoro-L-prolyl]-4,7-diazaspiro[2.5]octane-6-carboxylic acid dihydrochloride] | 5.4 | 100 | 400 to 2500 |
| CC[C@@H]1CN(C(=O)C(F)(F)F)C2(CC2)CN1C(=O)[C@@H]1C[C@@H](F)CN1C(=O)C1=C(C(C)C)N2C(=N[C@@](C)(c3ccc(Cl)nc3)[C@H]2c2ccc(Cl)c(F)c2)S1 [Example 5, (6R)-7-[(4R)-1-{[(5R,6S)-5-(4-chloro-3-fluorophenyl)-6-(6-chloropyridin-3-yl)-3-isopropyl-6-methyl-5,6-dihydroimidazo[2,1-b][1,3]thiazol-2-yl]carbonyl}-4-fluoro-L-prolyl]-6-ethyl-4-(trifluoroacetyl)-4,7-diazaspiro[2.5]octane] | 5.3 | – | < 400 |
| CC(C)C1=C(C(=O)N2C[C@H](F)C[C@H]2C(=O)N2CC3(CC3)NC[C@@H]2CF)SC2=N[C@@](C)(c3ccc(Cl)nc3)[C@@H](c3ccc(Cl)c(F)c3)N21 [Example 31] | 3.1 | 6 | < 400 |

Compounds with a lower IC50 (Mdm2/p53 binding), results first:

| IC50 (Mdm2/p53 binding) [nM] | MS (human) % (metabolic stability, residual percentage of compound) [1] [%] | GI50 [2] [nM] | Compound |
| --- | --- | --- | --- |
| 2.6 | 60 | < 400 | CC[C@@H]1CNC2(CC2)CN1C(=O)[C@@H]1C[C@@H](F)CN1C(=O)C1=C(C(C)C)N2C(=N[C@@](C)(c3ccc(Cl)cc3)[C@H]2c2ccc(Cl)cc2)S1 [Example 22] |
| 1.9 | 91 | < 400 | CC(C)C1=C(C(=O)N2C[C@H](F)C[C@H]2C(=O)N2CC3(CC3)NC[C@@H]2C)SC2=N[C@@](C)(c3ccc(Cl)nc3)[C@@H](c3ccc(Cl)cc3)N21 [Example 27] |
| 1.6 | 93 | < 400 | CC(C)C1=C(C(=O)N2C[C@H](F)C[C@H]2C(=O)N2CC3(CC3)NC[C@@H]2C)SC2=N[C@@](C)(c3ccc(Cl)cc3)[C@@H](c3ccc(Cl)cc3)N21 [Example 19] |
| 2.6 | 96 | < 400 | CC[C@H]1CNC2(CC2)CN1C(=O)[C@@H]1C[C@@H](F)CN1C(=O)C1=C(C(C)C)N2C(=N[C@@](C)(c3ccc(Cl)nc3)[C@H]2c2ccc(Cl)cc2)S1 [Example 29] |
| 1.6 | 24 | < 400 | CC(C)C1=C(C(=O)N2C[C@H](F)C[C@H]2C(=O)N2CCNC3(CC3)C2)SC2=N[C@@](C)(c3ccc(Cl)cc3)[C@@H](c3ccc(Cl)c(F)c3)N21 [Example 23] |

— patent US8404691B2, “Imidazothiazole derivatives having proline ring structure” (Daiichi Sankyo Company, Limited, priority 2009, dated 2013)
